Here are results for 22 compounds from the Kinase Knowledgebase extract (Sharma et al. 2016).

Structures are written as SMILES.

The assay has as its target PIK3CB;PIK3CG;PIK3CD;PIK3CA (human) (UniProt P48736). Briefly: Inhibition of PIK3CA/PIK3CB/PIK3CD/PIK3CG Kinase Activity.

In general, IC50 refers to the concentration that gives 50% inhibition. A high value points to weaker potency. In turn, `COc1ccc(CC2CCCCC2)c(Nc2nc3ccccc3nc2NS(=O)(=O)c2ccc(CN(C)C)cc2)c1` had an IC50 of 760 nM. In the case of `COc1ccc(CC2CCN(C)CC2)c(Nc2nc3ccccc3nc2NS(=O)(=O)c2cn(C)cn2)c1` it was 43 nM; in that of `COc1ccc(CO)c(Nc2nc3ccccc3nc2NS(=O)(=O)c2cn(C)cn2)c1`, 470 nM.

Regarding `COc1ccc(CCCO)c(Nc2nc3ccccc3nc2NS(=O)(=O)C(C)C)c1`, the IC50 turned out to be 72 nM. In the case of `COc1ccc(CCO)c(Nc2nc3ccccc3nc2NS(=O)(=O)c2ccc(F)cc2)c1` it was 23 nM. Under `COc1ccc(CN2CCN(C)CC2)c(Nc2nc3ccccc3nc2NS(=O)(=O)c2ccc(F)cc2)c1` stands 110 nM; under `COc1cc(Nc2nc3ccccc3nc2NS(=O)(=O)c2cn(C)cn2)cc(C(=O)NCCO)c1`, 100 nM; under `COc1ccc(CC2CCOCC2)c(Nc2nc3ccccc3nc2NS(C)(=O)=O)c1`, 130 nM. Regarding `COc1ccc(CCS(C)(=O)=O)c(Nc2nc3ccccc3nc2NS(=O)(=O)CCCSC)c1`, the IC50 stood at 140 nM. In the case of `CCCS(=O)(=O)Nc1nc2ccccc2nc1Nc1cc(OC)ccc1CCO` it was 44 nM; in that of `COc1ccc(CC2CCOCC2)c(Nc2nc3ccccc3nc2NS(=O)(=O)c2ccc(CN(C)C)cc2)c1`, 30 nM; in that of `COc1ccc(CCO)c(Nc2nc3ccccc3nc2NS(=O)(=O)c2ccc(CN(C)C)cc2)c1`, 26 nM.

Turning to `COc1cc(Nc2nc3ccccc3nc2NS(=O)(=O)c2cccnc2)cc(C(=O)N2CCOCC2)c1`, the IC50 amounted to 3100 nM. In turn, `COc1ccc(CC2CCOCC2)c(Nc2nc3ccccc3nc2NS(=O)(=O)c2ccc(F)cc2)c1` registered an IC50 of 150 nM. Under `COc1ccc(CC2CCN(S(C)(=O)=O)CC2)c(Nc2nc3ccccc3nc2NS(=O)(=O)c2cn(C)cn2)c1` stands 160 nM. `COCCNC(=O)c1cc(Nc2nc3ccccc3nc2NS(=O)(=O)c2cn(C)cn2)cc(OC)c1` registered an IC50 of 400 nM. In the case of `COc1ccc(CCO)c(Nc2nc3ccccc3nc2NS(=O)(=O)c2cccnc2)c1` it was 40 nM. In the case of `COc1ccc(CCO)c(Nc2nc3ccccc3nc2NS(=O)(=O)CCCSC)c1` it was 75 nM. Take `CC#N.COc1ccc(CCCO)c(Nc2nc3ccccc3nc2NS(=O)(=O)c2cn(C)cn2)c1`: the IC50 was determined as 21 nM. As for `COc1ccc(CCCO)c(Nc2nc3ccccc3nc2NS(=O)(=O)c2ccc(NC(=O)CN(C)C)cc2)c1`, the IC50 is 32 nM. Under `COc1ccc(CC2CCSCC2)c(Nc2nc3ccccc3nc2NS(=O)(=O)c2cn(C)cn2)c1` stands 100 nM.

On to `COc1ccc(CC2CCN(C(C)=O)CC2)c(Nc2nc3ccccc3nc2NS(C)(=O)=O)c1`, for which the IC50 came out at 170 nM.
